ChEMBL document CHEMBL1764952, “A novel application of DDQ as electrophile in the Nenitzescu reaction” (Bioorg Med Chem, 2011)
Values belong to the compound of their own block, whether it stands above or below them.

What was measured:
OVCAR-5 = assay: Antitumor activity against human OVCAR5 cells assessed as growth inhibition; assay type: functional
[1] = Antitumor activity against human NCI-ADR-RES cells assessed as growth inhibition; assay type: functional
DU-145 = assay: Antitumor activity against human DU145 cells assessed as growth inhibition; assay type: functional
[2] = biological target: T1, Casein kinase II (Homo sapiens) (UniProt P67870+P68400+P19784); assay: Inhibition of human recombinant CK2 using RRRDDDSDDD-EDANS peptide substrate at 10 µM by capillary electrophoresis analysis
HOP-92 = assay: Antitumor activity against human HOP92 cells assessed as growth inhibition; assay type: functional
Homo sapiens = species: Homo sapiens; assay: Antitumor activity against human lymphoma assessed as growth inhibition at 27 uM; assay type: functional
Casein kinase II = Casein kinase II (Homo sapiens, UniProt P19784+P67870+P68400); assay: Inhibition of human recombinant CK2 using RRRDDDSDDD-EDANS peptide substrate by capillary electrophoresis analysis; assay type: protein-complex assay
[3] = biological target: T1, Casein kinase II (Homo sapiens); assay: Inhibition of human recombinant CK2 using RRRDDDSDDD-EDANS peptide substrate at […] by capillary electrophoresis analysis; assay type: protein-complex assay

Casein kinase II, sequence (P67870 whole entry): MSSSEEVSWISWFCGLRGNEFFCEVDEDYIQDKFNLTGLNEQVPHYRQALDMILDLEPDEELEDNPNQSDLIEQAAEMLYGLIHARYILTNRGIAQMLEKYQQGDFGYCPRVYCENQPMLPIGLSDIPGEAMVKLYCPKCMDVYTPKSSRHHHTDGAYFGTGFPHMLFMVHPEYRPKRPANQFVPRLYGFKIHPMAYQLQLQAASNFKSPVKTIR
Casein kinase II, sequence (P68400 whole entry): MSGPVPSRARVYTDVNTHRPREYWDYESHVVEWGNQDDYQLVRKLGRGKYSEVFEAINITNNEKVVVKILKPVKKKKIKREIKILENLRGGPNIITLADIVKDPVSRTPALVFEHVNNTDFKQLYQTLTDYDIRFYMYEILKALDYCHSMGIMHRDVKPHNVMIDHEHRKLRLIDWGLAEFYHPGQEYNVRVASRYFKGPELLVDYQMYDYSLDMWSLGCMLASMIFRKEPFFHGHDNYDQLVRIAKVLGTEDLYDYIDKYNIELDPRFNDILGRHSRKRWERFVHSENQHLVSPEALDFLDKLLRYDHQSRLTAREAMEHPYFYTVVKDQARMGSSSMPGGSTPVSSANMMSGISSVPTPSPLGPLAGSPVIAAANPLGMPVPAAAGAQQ
Casein kinase II, sequence (P19784 whole entry): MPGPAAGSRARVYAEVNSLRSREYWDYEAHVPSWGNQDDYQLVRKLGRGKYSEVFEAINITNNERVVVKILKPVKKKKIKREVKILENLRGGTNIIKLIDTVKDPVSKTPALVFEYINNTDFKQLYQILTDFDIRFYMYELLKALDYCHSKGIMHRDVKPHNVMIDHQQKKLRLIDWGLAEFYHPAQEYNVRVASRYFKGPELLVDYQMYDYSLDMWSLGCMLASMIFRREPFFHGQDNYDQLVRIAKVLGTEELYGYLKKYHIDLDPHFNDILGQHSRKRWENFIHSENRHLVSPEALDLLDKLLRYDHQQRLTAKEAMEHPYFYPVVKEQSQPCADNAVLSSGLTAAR

SMILES: CCOC(=O)C1=C(C)N(Cc2ccc(Cl)cc2Cl)C(=N)C12C(=O)C(Cl)=C(Cl)C(O)=C2C#N (centres undefined)
GI50 (OVCAR-5): 2.69 µM
GI50 [1]: 0.191 µM

SMILES: CCOC(=O)C1=C(C)N(c2ccc(Cl)cc2)C(=N)C12C(=O)C(Cl)=C(Cl)C(O)=C2C#N (centres undefined)
GI50 (DU-145): 0.339 µM

SMILES: CCOC(=O)C1=C(C)N(c2ccc(F)cc2F)C(=N)C12C(=O)C(Cl)=C(Cl)C(O)=C2C#N (centres undefined)
GI50 (HOP-92): 1.78 µM

SMILES: CCOC(=O)c1oc2ccc(OC(C)=O)c(CNC(C)=O)c2c1NC(C)=O
inhibition [2]: 0%

SMILES: CCOC(=O)C1=C(C)N(Cc2ccc(Cl)cc2Cl)/C(=N\C(C)=O)C12C(=O)C(Cl)=C(Cl)C(OC(C)=O)=C2C#N (centres undefined)
inhibition [3]: 0%

SMILES: CCOC(=O)C1=C(c2ccccc2)N(c2ccc(OC)cc2)C(=N)C12C(=O)C(Cl)=C(Cl)C(O)=C2C#N (centres undefined)
GI50 (HOP-92): 0.55 µM

Now from value to compound, other results behind:

inhibition [2]: 39%
SMILES: CC(C)=CC(=O)c1coc2ccc(O)cc12

inhibition [2]: 93%
IC50 (Casein kinase II): 0.2 µM
SMILES: CC(=O)Oc1c(Cl)c(Cl)c2oc(C(=O)C=C(C)C)c(N)c2c1C#N
growth inhibition (GI) (Homo sapiens): > 99%

inhibition [2]: > 96%
SMILES: CC(C)=CC(=O)c1oc2c(Cl)c(Cl)c(O)c(C#N)c2c1N

inhibition [2]: 69%
IC50 (Casein kinase II): 2.4 µM
SMILES: CCOC(=O)c1oc2c(Cl)c(Cl)c(OC(C)=O)c(C#N)c2c1N
